Results published in ChEMBL document CHEMBL3414527, “Engineering potent and selective analogues of GpTx-1, a tarantula venom peptide antagonist of the Na(V)1.7 sodium channel” (J Med Chem, 2015).
Bridge positions count the residues as written; N and C are the ends. Peptide text beside a SMILES is read from it.

Tests used:
[1] = biological target: Sodium channel protein type 9 subunit alpha (Homo sapiens, UniProt Q15858); assay: Inhibition of human NaV1.7 at -140 mV holding potential by whole-cell patch clamp assay
[2] = biological target: Sodium channel protein type 5 subunit alpha (Homo sapiens, UniProt Q14524); assay: Inhibition of human NaV1.5 at -140 mV holding potential by whole-cell patch clamp assay
Sodium channel protein type 5 subunit alpha, sequence (Q14524 whole entry): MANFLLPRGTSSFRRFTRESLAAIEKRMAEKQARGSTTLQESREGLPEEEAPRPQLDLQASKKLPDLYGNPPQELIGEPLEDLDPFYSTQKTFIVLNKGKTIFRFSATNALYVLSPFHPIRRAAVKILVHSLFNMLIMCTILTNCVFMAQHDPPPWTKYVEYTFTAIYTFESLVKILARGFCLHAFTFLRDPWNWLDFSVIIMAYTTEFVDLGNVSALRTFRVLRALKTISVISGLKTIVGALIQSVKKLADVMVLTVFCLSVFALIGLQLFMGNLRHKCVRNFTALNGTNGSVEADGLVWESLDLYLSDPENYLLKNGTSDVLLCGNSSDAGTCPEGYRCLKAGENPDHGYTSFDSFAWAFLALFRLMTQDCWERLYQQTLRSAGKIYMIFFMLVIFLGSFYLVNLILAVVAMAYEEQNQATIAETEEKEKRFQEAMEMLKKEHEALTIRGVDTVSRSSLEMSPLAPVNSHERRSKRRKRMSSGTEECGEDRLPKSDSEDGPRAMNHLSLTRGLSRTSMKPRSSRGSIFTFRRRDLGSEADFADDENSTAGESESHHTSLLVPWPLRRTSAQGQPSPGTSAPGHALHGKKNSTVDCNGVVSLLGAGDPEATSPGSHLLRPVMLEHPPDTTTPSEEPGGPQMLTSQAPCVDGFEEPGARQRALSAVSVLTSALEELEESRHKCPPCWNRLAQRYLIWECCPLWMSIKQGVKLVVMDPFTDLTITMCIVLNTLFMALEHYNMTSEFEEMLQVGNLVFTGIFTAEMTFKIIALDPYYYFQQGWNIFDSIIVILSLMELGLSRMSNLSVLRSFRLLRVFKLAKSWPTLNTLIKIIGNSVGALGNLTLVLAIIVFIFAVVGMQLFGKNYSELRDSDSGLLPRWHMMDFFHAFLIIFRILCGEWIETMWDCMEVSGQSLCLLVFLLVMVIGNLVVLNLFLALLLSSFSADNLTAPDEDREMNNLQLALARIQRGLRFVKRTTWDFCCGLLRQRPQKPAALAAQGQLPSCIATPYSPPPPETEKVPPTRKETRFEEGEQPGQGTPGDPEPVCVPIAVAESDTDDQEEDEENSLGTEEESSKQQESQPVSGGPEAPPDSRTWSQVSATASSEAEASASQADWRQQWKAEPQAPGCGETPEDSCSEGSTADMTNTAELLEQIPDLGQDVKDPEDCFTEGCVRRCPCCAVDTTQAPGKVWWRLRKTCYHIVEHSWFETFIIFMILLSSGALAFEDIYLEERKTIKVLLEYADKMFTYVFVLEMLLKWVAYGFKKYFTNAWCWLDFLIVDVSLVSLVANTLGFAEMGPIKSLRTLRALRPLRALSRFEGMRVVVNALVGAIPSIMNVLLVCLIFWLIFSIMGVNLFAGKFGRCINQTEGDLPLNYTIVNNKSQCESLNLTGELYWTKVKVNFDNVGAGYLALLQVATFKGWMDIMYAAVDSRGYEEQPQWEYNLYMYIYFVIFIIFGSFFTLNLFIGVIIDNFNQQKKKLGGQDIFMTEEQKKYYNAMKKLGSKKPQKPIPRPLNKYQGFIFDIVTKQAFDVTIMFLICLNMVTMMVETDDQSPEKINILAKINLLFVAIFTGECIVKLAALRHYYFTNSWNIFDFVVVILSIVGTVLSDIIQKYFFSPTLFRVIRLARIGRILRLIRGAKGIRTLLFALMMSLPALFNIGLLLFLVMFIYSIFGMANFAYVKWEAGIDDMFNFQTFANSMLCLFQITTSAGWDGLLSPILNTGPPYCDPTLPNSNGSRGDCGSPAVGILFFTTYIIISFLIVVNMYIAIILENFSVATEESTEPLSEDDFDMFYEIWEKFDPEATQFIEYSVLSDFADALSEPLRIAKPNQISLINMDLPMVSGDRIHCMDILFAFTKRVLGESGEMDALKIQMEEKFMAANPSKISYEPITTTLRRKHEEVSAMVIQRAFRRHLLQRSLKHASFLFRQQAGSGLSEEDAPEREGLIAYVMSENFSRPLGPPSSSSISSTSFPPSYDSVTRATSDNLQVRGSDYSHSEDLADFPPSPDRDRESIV

Sodium channel protein type 9 subunit alpha, sequence (Q15858 whole entry): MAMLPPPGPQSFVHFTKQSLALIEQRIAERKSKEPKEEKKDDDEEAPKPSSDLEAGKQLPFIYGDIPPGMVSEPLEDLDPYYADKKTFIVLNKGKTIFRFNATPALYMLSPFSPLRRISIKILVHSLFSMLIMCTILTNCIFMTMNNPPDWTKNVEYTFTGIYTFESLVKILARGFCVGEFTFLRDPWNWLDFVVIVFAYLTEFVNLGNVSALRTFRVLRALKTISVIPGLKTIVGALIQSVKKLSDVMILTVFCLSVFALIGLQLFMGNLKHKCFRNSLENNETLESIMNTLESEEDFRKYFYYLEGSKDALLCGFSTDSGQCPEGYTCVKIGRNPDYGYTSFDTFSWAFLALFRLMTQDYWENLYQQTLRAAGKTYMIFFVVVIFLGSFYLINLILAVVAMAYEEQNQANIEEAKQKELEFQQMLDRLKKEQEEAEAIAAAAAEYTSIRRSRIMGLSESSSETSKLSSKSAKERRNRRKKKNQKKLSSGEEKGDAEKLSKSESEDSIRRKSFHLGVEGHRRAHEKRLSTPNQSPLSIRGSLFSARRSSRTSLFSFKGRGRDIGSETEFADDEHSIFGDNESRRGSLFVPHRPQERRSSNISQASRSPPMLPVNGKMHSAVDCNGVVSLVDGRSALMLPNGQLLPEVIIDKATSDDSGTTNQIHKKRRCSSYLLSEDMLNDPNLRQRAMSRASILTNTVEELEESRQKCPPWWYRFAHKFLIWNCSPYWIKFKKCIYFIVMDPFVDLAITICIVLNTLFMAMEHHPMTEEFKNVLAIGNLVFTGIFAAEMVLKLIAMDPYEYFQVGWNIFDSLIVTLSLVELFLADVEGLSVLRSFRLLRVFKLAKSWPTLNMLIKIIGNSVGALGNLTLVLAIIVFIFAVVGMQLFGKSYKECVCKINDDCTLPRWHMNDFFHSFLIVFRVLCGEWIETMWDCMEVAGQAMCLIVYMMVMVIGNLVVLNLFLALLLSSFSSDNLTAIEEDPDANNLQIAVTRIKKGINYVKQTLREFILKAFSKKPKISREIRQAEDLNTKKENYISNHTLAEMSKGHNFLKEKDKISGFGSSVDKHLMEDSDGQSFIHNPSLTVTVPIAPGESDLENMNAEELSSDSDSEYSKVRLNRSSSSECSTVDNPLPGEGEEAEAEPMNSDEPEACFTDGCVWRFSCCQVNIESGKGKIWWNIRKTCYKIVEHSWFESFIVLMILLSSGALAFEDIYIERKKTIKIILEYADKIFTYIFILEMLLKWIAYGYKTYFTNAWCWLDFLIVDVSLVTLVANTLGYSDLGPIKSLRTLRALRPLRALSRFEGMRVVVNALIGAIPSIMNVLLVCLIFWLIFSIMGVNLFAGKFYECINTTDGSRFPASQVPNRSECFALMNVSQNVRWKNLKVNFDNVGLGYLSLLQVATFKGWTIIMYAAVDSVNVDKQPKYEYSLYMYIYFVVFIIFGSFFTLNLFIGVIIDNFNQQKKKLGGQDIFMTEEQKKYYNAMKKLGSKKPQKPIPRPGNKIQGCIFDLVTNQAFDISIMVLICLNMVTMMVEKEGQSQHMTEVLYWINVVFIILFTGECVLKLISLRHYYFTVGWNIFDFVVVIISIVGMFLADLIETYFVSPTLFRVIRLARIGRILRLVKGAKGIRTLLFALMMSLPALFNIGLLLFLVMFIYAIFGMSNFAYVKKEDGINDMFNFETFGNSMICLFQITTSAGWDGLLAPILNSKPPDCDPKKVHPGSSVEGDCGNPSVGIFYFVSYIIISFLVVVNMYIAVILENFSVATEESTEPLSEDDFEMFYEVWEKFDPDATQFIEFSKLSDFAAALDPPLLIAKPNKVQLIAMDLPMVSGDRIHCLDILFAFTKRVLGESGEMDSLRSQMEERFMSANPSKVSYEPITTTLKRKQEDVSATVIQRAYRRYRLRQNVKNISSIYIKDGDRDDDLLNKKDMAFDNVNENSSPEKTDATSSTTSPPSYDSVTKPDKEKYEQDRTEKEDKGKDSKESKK

Row | Compound | IC50 [1] [nM] | IC50 [2] [nM]
1 | CC[C@H](C)[C@@H]1NC(=O)[C@@H]2CSSC[C@@H]3NC(=O)[C@H](C(C)C)NC(=O)[C@H](CC(C)C)NC(=O)[C@H](CC(N)=O)NC(=O)[C@@H]4CCCN4C(=O)[C@H](CCCNC(=N)N)NC(=O)[C@H](CSSC[C@H](NC(=O)[C@@H](N)CC(=O)O)C(=O)N[C@@H](CC(C)C)C(=O)NCC(=O)N[C@@H](Cc4ccccc4)C(=O)N[C@@H](CCSC)C(=O)N[C@@H](CCCNC(=N)N)C(=O)N[C@@H](CCCCN)C(=O)N2)NC(=O)[C@H](CSSC[C@@H](C(=O)N[C@@H](CCCCN)C(=O)N[C@@H](Cc2ccc(O)cc2)C(=O)N[C@H](C(=O)N[C@@H](Cc2ccccc2)C(N)=O)C(C)C)NC(=O)[C@H](Cc2c[nH]c4ccccc24)NC(=O)[C@H](CCCCN)NC(=O)[C@H](Cc2cnc[nH]2)NC(=O)[C@H]([C@@H](C)O)NC(=O)[C@H](C)NC(=O)[C@H](CO)NC3=O)NC(=O)[C@H](CCCCN)NC(=O)[C@H](CC(=O)O)NC(=O)[C@H](CC(N)=O)NC(=O)[C@H](CC(=O)O)NC(=O)[C@@H]2CCCN2C1=O (H-DCLGFMRKCIPDNDKCCRPNLVCSATHKWCKYVF-NH2; disulfide 2-17, 9-23, 16-30) | 330 | > 5000
2 | CC[C@H](C)[C@@H]1NC(=O)[C@@H]2CSSC[C@@H]3NC(=O)[C@H](C(C)C)NC(=O)[C@H](CC(C)C)NC(=O)[C@H](CC(N)=O)NC(=O)[C@@H]4CCCN4C(=O)[C@H](CCCNC(=N)N)NC(=O)[C@H](CSSC[C@H](NC(=O)[C@@H](N)CC(=O)O)C(=O)N[C@@H](CC(C)C)C(=O)NCC(=O)N[C@@H](Cc4ccccc4)C(=O)N[C@@H](CCSC)C(=O)N[C@@H](CCCNC(=N)N)C(=O)N[C@@H](CCCCN)C(=O)N2)NC(=O)[C@H](CSSC[C@@H](C(=O)N[C@@H](C)C(=O)N[C@@H](Cc2ccc(O)cc2)C(=O)N[C@H](C(=O)N[C@@H](Cc2ccccc2)C(N)=O)C(C)C)NC(=O)[C@H](Cc2c[nH]c4ccccc24)NC(=O)[C@H](CCCCN)NC(=O)[C@H](Cc2cnc[nH]2)NC(=O)[C@H]([C@@H](C)O)NC(=O)[C@H](CCCNC(=N)N)NC(=O)[C@H](CO)NC3=O)NC(=O)[C@H](CCCCN)NC(=O)[C@H](CC(=O)O)NC(=O)[C@H](CC(N)=O)NC(=O)[C@H](CC(=O)O)NC(=O)[C@@H]2CCCN2C1=O (H-DCLGFMRKCIPDNDKCCRPNLVCSRTHKWCAYVF-NH2; disulfide 2-17, 9-23, 16-30) | > 5000 | > 5000
3 | CC[C@H](C)[C@@H]1NC(=O)[C@@H]2CSSC[C@@H]3NC(=O)[C@H](C(C)C)NC(=O)[C@H](CC(C)C)NC(=O)[C@H](CC(N)=O)NC(=O)[C@@H]4CCCN4C(=O)[C@H](CCCNC(=N)N)NC(=O)[C@H](CSSC[C@H](NC(=O)[C@@H](N)CC(=O)O)C(=O)N[C@@H](CC(C)C)C(=O)NCC(=O)N[C@@H](C(C)(C)C)C(=O)N[C@@H](CCSC)C(=O)N[C@@H](CCCNC(=N)N)C(=O)N[C@@H](CCCCN)C(=O)N2)NC(=O)[C@H](CSSC[C@@H](C(=O)N[C@@H](CCCCN)C(=O)N[C@@H](Cc2ccc(O)cc2)C(=O)N[C@H](C(=O)N[C@@H](Cc2ccccc2)C(N)=O)C(C)C)NC(=O)[C@H](Cc2c[nH]c4ccccc24)NC(=O)[C@H](CCCCN)NC(=O)[C@H](Cc2cnc[nH]2)NC(=O)[C@H]([C@@H](C)O)NC(=O)[C@H](CCCNC(=N)N)NC(=O)[C@H](CO)NC3=O)NC(=O)[C@H](CCCCN)NC(=O)[C@H](CC(=O)O)NC(=O)[C@H](CC(N)=O)NC(=O)[C@H](CC(=O)O)NC(=O)[C@@H]2CCCN2C1=O | 24 | > 10000
4 | CC[C@H](C)[C@@H]1NC(=O)[C@@H]2CSSC[C@@H]3NC(=O)[C@H](C(C)C)NC(=O)[C@H](CC(C)C)NC(=O)[C@H](CC(N)=O)NC(=O)[C@@H]4CCCN4C(=O)[C@H](CCCNC(=N)N)NC(=O)[C@H](CSSC[C@H](NC(=O)[C@@H](N)CC(=O)O)C(=O)N[C@@H](CC(C)C)C(=O)NCC(=O)N(C)[C@@H](CC(C)C)C(=O)N[C@@H](CCSC)C(=O)N[C@@H](CCCNC(=N)N)C(=O)N[C@@H](CCCCN)C(=O)N2)NC(=O)[C@H](CSSC[C@@H](C(=O)N[C@@H](CCCCN)C(=O)N[C@@H](Cc2ccc(O)cc2)C(=O)N[C@H](C(=O)N[C@@H](Cc2ccccc2)C(N)=O)C(C)C)NC(=O)[C@H](Cc2c[nH]c4ccccc24)NC(=O)[C@H](CCCCN)NC(=O)[C@H](Cc2cnc[nH]2)NC(=O)[C@H]([C@@H](C)O)NC(=O)[C@H](CCCNC(=N)N)NC(=O)[C@H](CO)NC3=O)NC(=O)[C@H](CCCCN)NC(=O)[C@H](CC(=O)O)NC(=O)[C@H](CC(N)=O)NC(=O)[C@H](CC(=O)O)NC(=O)[C@@H]2CCCN2C1=O | 25 | > 10000
5 | CC[C@H](C)[C@@H]1NC(=O)[C@@H]2CSSC[C@@H]3NC(=O)[C@H](C(C)C)NC(=O)[C@H](CC(C)C)NC(=O)[C@H](CC(N)=O)NC(=O)[C@@H]4CCCN4C(=O)[C@H](CCCNC(=N)N)NC(=O)[C@H](CSSC[C@H](NC(=O)[C@@H](N)CC(=O)O)C(=O)N[C@@H](CC(C)C)C(=O)NCC(=O)N[C@@H](Cc4ccccc4)C(=O)N[C@@H](Cc4cccc5ccccc45)C(=O)N[C@@H](CCCNC(=N)N)C(=O)N[C@@H](CCCCN)C(=O)N2)NC(=O)[C@H](CSSC[C@@H](C(=O)N[C@@H](CCCCN)C(=O)N[C@@H](Cc2ccc(O)cc2)C(=O)N[C@H](C(=O)N[C@@H](Cc2ccccc2)C(N)=O)C(C)C)NC(=O)[C@H](Cc2c[nH]c4ccccc24)NC(=O)[C@H](CCCCN)NC(=O)[C@H](Cc2cnc[nH]2)NC(=O)[C@H]([C@@H](C)O)NC(=O)[C@H](CCCNC(=N)N)NC(=O)[C@H](CO)NC3=O)NC(=O)[C@H](CCCCN)NC(=O)[C@H](CC(=O)O)NC(=O)[C@H](CC(N)=O)NC(=O)[C@H](CC(=O)O)NC(=O)[C@@H]2CCCN2C1=O | 4 | 400
6 | CC[C@H](C)[C@@H]1NC(=O)[C@@H]2CSSC[C@@H]3NC(=O)[C@H](C(C)C)NC(=O)[C@H](CC(C)C)NC(=O)[C@H](CC(N)=O)NC(=O)[C@@H]4CCCN4C(=O)[C@H](CCCNC(=N)N)NC(=O)[C@H](CSSC[C@H](NC(=O)[C@@H](N)CC(=O)O)C(=O)N[C@@H](CC(C)C)C(=O)NCC(=O)N[C@@H](Cc4ccccc4)C(=O)N[C@@H](CC4CCCCC4)C(=O)N[C@@H](CCCNC(=N)N)C(=O)N[C@@H](CCCCN)C(=O)N2)NC(=O)[C@H](CSSC[C@@H](C(=O)N[C@@H](CCCCN)C(=O)N[C@@H](Cc2ccc(O)cc2)C(=O)N[C@H](C(=O)N[C@@H](Cc2ccccc2)C(N)=O)C(C)C)NC(=O)[C@H](Cc2c[nH]c4ccccc24)NC(=O)[C@H](CCCCN)NC(=O)[C@H](Cc2cnc[nH]2)NC(=O)[C@H]([C@@H](C)O)NC(=O)[C@H](CCCNC(=N)N)NC(=O)[C@H](CO)NC3=O)NC(=O)[C@H](CCCCN)NC(=O)[C@H](CC(=O)O)NC(=O)[C@H](CC(N)=O)NC(=O)[C@H](CC(=O)O)NC(=O)[C@@H]2CCCN2C1=O | 4 | 2800
7 | CC[C@H](C)[C@@H]1NC(=O)[C@@H]2CSSC[C@@H]3NC(=O)[C@H](C(C)C)NC(=O)[C@H](CC(C)C)NC(=O)[C@H](CC(N)=O)NC(=O)[C@@H]4CCCN4C(=O)[C@H](CCCNC(=N)N)NC(=O)[C@H](CSSC[C@H](NC(=O)[C@@H](N)CC(=O)O)C(=O)N[C@@H](CC(C)C)C(=O)NCC(=O)N[C@@H](Cc4ccccc4)C(=O)N[C@@H](CCSC)C(=O)N[C@@H](CCCNC(=N)N)C(=O)N[C@@H](CCCCN)C(=O)N2)NC(=O)[C@H](CSSC[C@@H](C(=O)N[C@@H](CCCCN)C(=O)N[C@@H](Cc2ccc(O)cc2)C(=O)N[C@@H](C)C(=O)N[C@@H](Cc2ccccc2)C(N)=O)NC(=O)[C@H](Cc2c[nH]c4ccccc24)NC(=O)[C@H](CCCCN)NC(=O)[C@H](Cc2cnc[nH]2)NC(=O)[C@H]([C@@H](C)O)NC(=O)[C@H](CCCNC(=N)N)NC(=O)[C@H](CO)NC3=O)NC(=O)[C@H](CCCCN)NC(=O)[C@H](CC(=O)O)NC(=O)[C@H](CC(N)=O)NC(=O)[C@H](CC(=O)O)NC(=O)[C@@H]2CCCN2C1=O (H-DCLGFMRKCIPDNDKCCRPNLVCSRTHKWCKYAF-NH2; disulfide 2-17, 9-23, 16-30) | 170 | > 5000
8 | CC[C@H](C)[C@@H]1NC(=O)[C@@H]2CSSC[C@@H]3NC(=O)[C@H](C(C)C)NC(=O)[C@H](CC(C)C)NC(=O)[C@H](CC(N)=O)NC(=O)[C@@H]4CCCN4C(=O)[C@H](C)NC(=O)[C@H](CSSC[C@H](NC(=O)[C@@H](N)CC(=O)O)C(=O)N[C@@H](CC(C)C)C(=O)NCC(=O)N[C@@H](Cc4ccccc4)C(=O)N[C@@H](CCSC)C(=O)N[C@@H](CCCNC(=N)N)C(=O)N[C@@H](CCCCN)C(=O)N2)NC(=O)[C@H](CSSC[C@@H](C(=O)N[C@@H](CCCCN)C(=O)N[C@@H](Cc2ccc(O)cc2)C(=O)N[C@H](C(=O)N[C@@H](Cc2ccccc2)C(N)=O)C(C)C)NC(=O)[C@H](Cc2c[nH]c4ccccc24)NC(=O)[C@H](CCCCN)NC(=O)[C@H](Cc2cnc[nH]2)NC(=O)[C@H]([C@@H](C)O)NC(=O)[C@H](CCCNC(=N)N)NC(=O)[C@H](CO)NC3=O)NC(=O)[C@H](CCCCN)NC(=O)[C@H](CC(=O)O)NC(=O)[C@H](CC(N)=O)NC(=O)[C@H](CC(=O)O)NC(=O)[C@@H]2CCCN2C1=O (H-DCLGFMRKCIPDNDKCCAPNLVCSRTHKWCKYVF-NH2; disulfide 2-17, 9-23, 16-30) | 130 | > 20000
